In patent publication US20240287172A1, “PROTEIN BINDERS TO IRHOM2 EPITOPES” (SCIRHOM GMBH, priority 2019, published 2024) one finds inhibition data, which are given here for 1 molecule.

For this assay, the system named is LPS-induced release of endogenous TNFα from PBMCs from patients suffering from rheumatoid arthritis. The experiment in a line: ELISA-based TNFα release assay, LPS-induced, PBMCs from RA-patients. The class given is cell-based. As to conditions: PBMC; LPS 1 ng/ml, 1.5 hours; chimeric antibodies (CHO) and human IgG at 1 μg/ml; Batimastat at 10 μM. As to the method:
In brief, on day 1, Nunc black MaxiSorp® 96-well plates (Thermo Fisher Scientific, USA) were coated overnight with 100 μl per well of mouse anti-human TNFα capture antibody (provided as part of the DuoSet ELISA kit) at 4 μg/ml TBS at 4° C. On day 2, the capture antibody solution was removed and MaxiSorp® plates were blocked with 300 μl per well of TBS, 1% BSA at room temperature for 3 hours. Meanwhile, 20,000 PBMC from patients suffering from rheumatoid arthritis (STEMCELL Technologies, Canada) cells in 80 μl of normal growth medium were seeded in each well of Greiner CELLSTAR V-bottom 96-well plates (Thermo Fisher Scientific, USA) and pre-incubated with 20 μl per well of standard growth medium supplemented with Batimastat (BB94, Abcam, UK) at 50 μM as positive control (for a final concentration of 10 μM in the resulting 100 μl sample volume), human IgG antibody (Thermo Fisher Scientific, USA) at 5 μg/ml as isotype control (for a final concentration of 1 μg/ml in the resulting 100 μl sample volume) or antibodies of the invention at 5 μg/ml (for a final concentration of 1 μg/ml in the resulting 100 μl sample volume) at 37° C., 5% CO2 for 30 minutes. […] Using an infinite M1000 (Tecan Group, Switzerland) microplate reader, the fluorescence of each well was collected at an excitation wavelength of 435 nm and an emission wavelength of 555 nm.
For orientation: ELISA stands for enzyme-linked immunosorbent assay.

As for `CNC(=O)[C@H](Cc1ccccc1)NC(=O)[C@H](CC(C)C)[C@H](CSc1cccs1)C(=O)NO` [Batimastat], 10 µM produced 99.9% inhibition.
